Source: patent US20260001928A1 (CORTERIA PHARMACEUTICALS, priority 2022, published 2026)
*1 amine or outer side, *2 acyl side, *3 side chain or, on linkers, in order; H or OH if unused. Where a SMILES comes first, the peptide text is derived from it. Side-chain parts run from the residue outwards. [ ]: non-standard residue; d: D form. The star is where a group is joined. C18 diacid = O=C(O)CCCCCCCCCCCCCCCCC(=O)*; C16 diacid = O=C(O)CCCCCCCCCCCCCCC(=O)*; γGlu = O=C(O)[C@H](CCC(=O)[*:2])N[*:1]; NMeI = CC[C@H](C)[C@H](NC)C(=O)O; Pentanoyl = CCCCC(=O)*; AEEA = NCCOCCOCC(=O)O; Aib = CC(C)(N)C(=O)O

Biological target: T1, CFR1R receptor (Homo sapiens, UniProt P34998)
T1 construct: host or cells: CHO-K1 (clone 2)
T1 sequence (P34998 24-415): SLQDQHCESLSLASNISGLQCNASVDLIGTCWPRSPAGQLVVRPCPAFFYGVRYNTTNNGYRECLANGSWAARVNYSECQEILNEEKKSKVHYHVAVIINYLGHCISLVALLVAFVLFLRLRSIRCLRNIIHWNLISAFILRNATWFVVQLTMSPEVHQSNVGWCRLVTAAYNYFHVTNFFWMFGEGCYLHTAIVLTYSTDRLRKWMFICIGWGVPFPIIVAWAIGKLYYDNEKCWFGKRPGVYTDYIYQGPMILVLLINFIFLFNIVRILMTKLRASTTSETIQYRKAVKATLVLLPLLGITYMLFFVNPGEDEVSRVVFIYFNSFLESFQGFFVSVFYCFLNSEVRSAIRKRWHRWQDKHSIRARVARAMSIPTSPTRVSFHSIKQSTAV
Assay: Activity at anti-target CFR1R receptor, cAMP assay in CRF1R-overexpression CHO-K1 cells
Assay type: cell-based
Settings: 100% = Sauvagine at 100 nM
Protocol: Assessment of activity at anti-target CFR1R receptor is done using the same procedure as the one described for the TeloHEAC cell line. The CRF1R-overexpression CHO-K1 cell line clone 2 was purchased from PerkinElmer. Cells were grown in a 10 cm dish at 37° C./5% CO2 in medium (F12 (Hams)/10% FBS/400 μg/ml G418) to near confluence. At that stage, cells were harvested, resuspended to 10 million/mL in culture medium without G418 and with 10% DMSO. 1 mL vial aliquots were slowly frozen to −80° C. in isopropanol and then transferred in liquid nitrogen for storage. These vials were used to run the experiment following the procedure reported in the previous paragraph, except for the compound used in the control well to define the 100% activation (Sauvagine at 100 nM) and the cell density (final cell density: 4000 cells/well)

Compound	Emax (% I)
CC[C@H](C)[C@H](NC(C)=O)C(=O)N[C@H](C(=O)N[C@@H](CC(C)C)C(=O)N[C@@H](CO)C(=O)N[C@@H](CC(C)C)C(=O)N[C@@H](CC(=O)O)C(=O)N[C@@H](C(=O)N1CCC[C@H]1C(=O)N[C@H](C(=O)N[C@@H](CCCCN)C(=O)N[C@@H](CC(C)C)C(=O)N[C@@H](CCCCNC(=O)CC[C@H](NC(=O)CCCCCCCCCCCCCCC(=O)O)C(=O)O)C(=O)N[C@@H](CCC(N)=O)C(=O)N[C@H](C(=O)N[C@@H](CC(C)C)C(=O)N[C@@H](CC(C)C)C(=O)N[C@@H](CCCCN)C(=O)N[C@@H](CCC(N)=O)C(=O)N[C@@H](CCC(=O)O)C(=O)N[C@@H](CCCNC(=N)N)C(=O)N[C@@H](CCC(N)=O)C(=O)N[C@@H](CCCCN)C(=O)N[C@@H](CCCCN)C(=O)N[C@@H](CCC(N)=O)C(=O)N[C@@H](CCCNC(=N)N)C(=O)N[C@@H](CCC(=O)O)C(=O)N[C@@H](CCC(N)=O)C(=O)N[C@@H](C)C(=O)N[C@@H](CCC(=O)O)C(=O)N[C@@H](CCCCN)C(=O)N[C@@H](CC(N)=O)C(=O)N[C@@H](CCCCN)C(=O)N[C@@H](CCC(N)=O)C(=O)N[C@H](C(=O)N[C@@H](CC(C)C)C(=O)N[C@@H](CCC(=O)O)C(=O)N[C@@H](CCC(N)=O)C(=O)N[C@H](C(N)=O)C(C)C)[C@@H](C)CC)[C@@H](C)CC)[C@@H](C)CC)C(C)C)C(C)C [SEQ ID No. 2, reference compound] (Ac-IVLSLD[dV]PIKLK([γGlu-C16 diacid])QILLKQERQKKQREQAEKNKQILEQV-NH2)	4
CC[C@H](C)[C@H](NC)C(=O)N[C@H](C(=O)N[C@@H](CC(C)C)C(=O)N[C@@H](CO)C(=O)N[C@@H](CC(C)C)C(=O)N[C@@H](CC(=O)O)C(=O)N[C@@H](C(=O)N1CCC[C@H]1C(=O)N[C@H](C(=O)N[C@@H](CCCCN)C(=O)N[C@@H](CC(C)C)C(=O)N[C@@H](CCCCNC(=O)COCCOCCNC(=O)COCCOCCNC(=O)CC[C@H](NC(=O)CC[C@H](NC(=O)CCCCCCCCCCCCCCCCC(=O)O)C(=O)O)C(=O)O)C(=O)N[C@@H](CCC(N)=O)C(=O)N[C@H](C(=O)N[C@@H](CC(C)C)C(=O)N[C@@H](CC(C)C)C(=O)N[C@@H](CCCCN)C(=O)N[C@@H](CCC(N)=O)C(=O)N[C@@H](CCC(=O)O)C(=O)N[C@@H](CCCNC(=N)N)C(=O)N[C@@H](CCC(N)=O)C(=O)N[C@@H](CCCCN)C(=O)N[C@@H](CCCCN)C(=O)N[C@@H](CCC(N)=O)C(=O)N[C@@H](CCCNC(=N)N)C(=O)N[C@@H](CCC(=O)O)C(=O)N[C@@H](CCC(N)=O)C(=O)N[C@@H](C)C(=O)N[C@@H](CCC(=O)O)C(=O)N[C@@H](CCCCN)C(=O)N[C@@H](CC(N)=O)C(=O)NC(C)(C)C(=O)N[C@@H](CCC(N)=O)C(=O)N[C@H](C(=O)N[C@@H](CC(C)C)C(=O)N[C@@H](CCC(=O)O)C(=O)N[C@@H](CCC(N)=O)C(=O)N[C@H](C(N)=O)C(C)C)[C@@H](C)CC)[C@@H](C)CC)[C@@H](C)CC)C(C)C)C(C)C [compound 31] (H-[NMeI]VLSLD[dV]PIKLK([AEEA-AEEA-γGlu-γGlu-C18 diacid])QILLKQERQKKQREQAEKN[Aib]QILEQV-NH2)	14
CCCCC(=O)N[C@H](C(=O)N[C@@H](CC(C)C)C(=O)N[C@@H](CO)C(=O)N[C@@H](CC(C)C)C(=O)N[C@@H](CC(=O)O)C(=O)N[C@@H](C(=O)N1CCC[C@H]1C(=O)N[C@H](C(=O)N[C@@H](CCCCN)C(=O)N[C@@H](CC(C)C)C(=O)N[C@@H](CCCCNC(=O)COCCOCCNC(=O)COCCOCCNC(=O)CC[C@H](NC(=O)CC[C@H](NC(=O)CCCCCCCCCCCCCCCCC(=O)O)C(=O)O)C(=O)O)C(=O)N[C@@H](CCC(N)=O)C(=O)NC(C)(C)C(=O)N[C@@H](CC(C)C)C(=O)N[C@@H](CC(C)C)C(=O)N[C@@H](CCCCN)C(=O)N[C@@H](CCC(N)=O)C(=O)N[C@@H](CCC(=O)O)C(=O)N[C@@H](CCCNC(=N)N)C(=O)N[C@@H](CCC(N)=O)C(=O)N[C@@H](CCCCN)C(=O)N[C@@H](CCCCN)C(=O)N[C@@H](CCC(N)=O)C(=O)N[C@@H](CCCNC(=N)N)C(=O)N[C@@H](CCC(=O)O)C(=O)N[C@@H](CCC(N)=O)C(=O)N[C@@H](C)C(=O)N[C@@H](CCC(=O)O)C(=O)N[C@@H](CCCCN)C(=O)N[C@@H](CC(N)=O)C(=O)N[C@H](C(=O)N[C@@H](CCC(N)=O)C(=O)N[C@H](C(=O)N[C@@H](CC(C)C)C(=O)N[C@@H](CCC(=O)O)C(=O)N[C@@H](CCC(N)=O)C(=O)N[C@H](C(N)=O)C(C)C)[C@@H](C)CC)C(C)C)[C@@H](C)CC)C(C)C)C(C)C [compound 29] (Pentanoyl-VLSLD[dV]PIKLK([AEEA-AEEA-γGlu-γGlu-C18 diacid])Q[Aib]LLKQERQKKQREQAEKNVQILEQV-NH2)	6
